Assay results published in patent US20090232731A1, “Cationic Liposomal Preparations for the Treatment of Rheumatoid Arthritis” (priority 2006, published 2009).

Tests used:
[1] = system: collagen induced arthritis; assay: Collagen induced arthritis in DBA/1 mice, clinical arthritis score (EndoMTX); type: in vivo; conditions: day 34; i.v. 3 times a week from day 15, 5.0 mg/kg methotrexate where loaded
Description: Male DBA/1 mice with an age of ten weeks at arrival were purchased from Taconic Europe and housed in isolated cages under save environmental conditions (Five mice per cage, 22° C., 30-70% humidity and 12 h light/dark cycle) with food and water ad libitum. Experimental design was reviewed and approved by local government.
Mice were assigned to the experimental groups acclimated at least 7 days before induction of collagen induced arthritis. Animals were anesthetized intraperitoneally (i.p.) with a mixture of Xylazin and Ketamin. Each animal obtained 4 ml/kg as application volume. 0.5 ml Rompun (20 mg/ml Xylazin) and 1 ml Ketamin (100 mg/ml Ketamin) were mixed (1:2) and diluted 1:4 in 4.5 ml 0.9% NaCl. 2. For the Collagen Type II-CFA emulsions, Collagen (bovine, 4 mg/ml) was mixed 1:1 with CFA by repeated passage through a flexible tube connecting two 1-ml syringes (syringe-syringe-method). This mixture was kept on ice and will be applied within 4 hours after preparation. For the immunization 100 μl Collagen/CFA-emulsion was injected subcutaneously at the base of the tail. The injection of Collagen/CFA-emulsion was done once on day 0 and once as a booster immunization on day 21. After two weeks the animals were controlled for symptoms of collagen induced arthritis (CIA) by joint scoring three times a week. […]

[2] = system: collagen induced arthritis; assay: Collagen induced arthritis in B10RIII mice, clinical arthritis score (EndoTAG-1); type: in vivo; conditions: endpoint day 11; i.v. every second day; paclitaxel 2.56 mg/kg, Enbrel 10 mg/kg

Compound	order of antiarthritic efficacy (mean clinical arthritis score) [1]	order of antiarthritic efficacy (mean clinical arthritis score) [2]
CN(Cc1cnc2nc(N)nc(N)c2n1)c1ccc(C(=O)N[C@@H](CCC(=O)O)C(=O)O)cc1 [MTX, N-[4-[[(2,4-diamino-6-pteridinyl)methyl]methylamino]benzoyl]-L-glutamic acid]	EndoMTX>EndoMTX placebo>MTX	
Enbrel		Enbrel>EndoTAG-1>EndoTAG-1 placebo and Taxol®
